Data on 31 compounds can be found in ChEMBL document CHEMBL6078728 (Bioorg Med Chem, 2025).

Calls of active or inactive are those of the source. The calls are words filed in the database; no cut-off is given here.

In general, IC50 refers to the concentration that gives 50% inhibition.

The nature of series [1]: Inhibition of NLRP3 inflammasome activation in LPS/ATP stimulated human THP-1 cells assessed as inhibition of IL-1beta production pretreated with compound for 15 mins followed by LPS and ATP addition and measured after 2 hrs by ELISA. It is filed as cell-based.
Series [2] in a line: Drug concentration in male Sprague-Dawley rat plasma at 10 mg/kg, ip measured after 1 hr by LC-MS/MS analysis. It is filed as ADME, organism-based.
Series [3] is described as follows: Drug concentration in male Sprague-Dawley rat brain at 10 mg/kg, ip measured after 1 hr by LC-MS/MS analysis. To be noted: read-out: Ct. In kind it is ADME, organism-based.
Series [4] in a line: Ratio of drug concentration in brain to plasma in male Sprague-Dawley rat at 10 mg/kg, ip measured after 1 hr by LC-MS/MS analysis. It is filed as ADME, organism-based. To be noted: brain and plasma, read-out: BPR.
The nature of series [5]: Inhibition of NLRP3 inflammasome activation in LPS primed mouse BMDM cells assessed as inhibition of IL-1beta production preincubated with compound for 1 hr followed by nigericin stimulation and measured after 1 hr by ELISA method. It is filed as cell-based. For orientation: ELISA stands for enzyme-linked immunosorbent assay.
The target of series [6] is NACHT, LRR and PYD domains-containing protein 3 (Rattus norvegicus) (UniProt D4A523). To be noted: wistar, dose <= 30.0 mg/kg, route po, time 30.0 min.
In a further series the test system is THP-1. Nature of the series: Antiinflammatory activity against LPS/ATP stimulated human THP-1 cells assessed as ASC speck formation by DAPI staining based cell analyzer. It is filed as functional.
The nature of series [7]: Inhibition of NLRP3 inflammasome activation in LPS stimulated human THP-1 cells assessed as inhibition of TNF-alpha production pretreated with compound for 15 mins followed by LPS and ATP addition and measured after 2 hrs by ELISA. In kind it is cell-based.
The nature of series [8]: Drug concentration in male Sprague-Dawley rat plasma at 5 mg/kg, ip measured after 1 hr by LC-MS/MS analysis. It is filed as ADME, organism-based.
Series [9] in a line: Drug concentration in male Sprague-Dawley rat brain at 5 mg/kg, ip measured after 1 hr by LC-MS/MS analysis. It is filed as ADME, organism-based. To be noted: read-out: Ct.
Series [10] is described as follows: Ratio of drug concentration in brain to plasma in male Sprague-Dawley rat at 5 mg/kg, ip measured after 1 hr by LC-MS/MS analysis. In kind it is ADME, organism-based. To be noted: brain and plasma, read-out: BPR.
A short description of series [11]: Intrinsic clearance in human liver microsomes at 0.2 uM in presence of NADPH incubated for 30 mins by LC-MS/MS analysis. It is filed as ADME, Microsome. The note with it: read-out: CLH. On the technique in general: Microsomes from liver hold many membrane-bound enzymes, among them those of drug oxidation.
Series [12] can be described thus: Intrinsic clearance in rat liver microsomes at 0.2 uM in presence of NADPH incubated for 30 mins by LC-MS/MS analysis. It is filed as ADME, Microsome. The note with it: read-out: CLH.
Series [13] in a line: Ratio of drug concentration in brain to plasma in male Sprague-Dawley rat at 10 mg/kg, po measured after 1 hr by LC-MS/MS analysis. It is filed as ADME, organism-based. The note with it: brain and plasma, read-out: BPR.
Series [14] concerns the target NACHT, LRR and PYD domains-containing protein 3 (Rattus norvegicus) (UniProt D4A523). Nature of the series: In vivo inhibition of NLRP3 activation in LPS-induced male wistar rat model assessed as inhibition of IL-1 beta production in CSF at 0.3 mg/kg, po measured after 30 mins by Western blotting analysis. It is filed as functional, organism-based. A general note: Immunoblotting shows a protein as a band on a membrane.

Series [15] shares this target. The experiment in a line: In vivo inhibition of NLRP3 activation in LPS-induced male wistar rat model assessed as inhibition of IL-1 beta production in CSF at 1 mg/kg, po measured after 30 mins by Western blotting analysis. In kind it is functional, organism-based.
The target is the same in series [16]. Nature of the series: In vivo inhibition of NLRP3 activation in LPS-induced male wistar rat model assessed as inhibition of IL-1 beta production in CSF at 3 mg/kg, po measured after 30 mins by Western blotting analysis. In kind it is functional, organism-based.
Series [17] can be described thus: Inhibition of NLRP3 inflammasome activation in alpha-synuclein pre-formed fibril stimulated human THP-1 cells assessed as inhibition of IL-1beta production preincubated with compound for 15 mins followed by alpha-synuclein pre-formed fibril addition and measured after 24 hrs by ELISA. In kind it is cell-based.
Series [18] has as its system Mus musculus. Nature of the series: Improvement of motor dysfunction in pathogenic alpha-synuclein induced male C57BL/6J mouse assessed as reduction in number of falls at 1 mg/kg, po administered once a day for 4 weeks and measured 1 hr after last administration by hanging wire test. In kind it is functional, organism-based.
Series [19] relates to Mus musculus. The experiment in a line: Improvement of motor dysfunction in pathogenic alpha-synuclein induced male C57BL/6J mouse assessed as reduction in number of falls at 10 mg/kg, po administered once a day for 4 weeks and measured 1 hr after last administration by hanging wire test. In kind it is functional, organism-based.

Sequence of NACHT, LRR and PYD domains-containing protein 3 (Rattus norvegicus) (D4A523 whole entry, the tested form may be a part): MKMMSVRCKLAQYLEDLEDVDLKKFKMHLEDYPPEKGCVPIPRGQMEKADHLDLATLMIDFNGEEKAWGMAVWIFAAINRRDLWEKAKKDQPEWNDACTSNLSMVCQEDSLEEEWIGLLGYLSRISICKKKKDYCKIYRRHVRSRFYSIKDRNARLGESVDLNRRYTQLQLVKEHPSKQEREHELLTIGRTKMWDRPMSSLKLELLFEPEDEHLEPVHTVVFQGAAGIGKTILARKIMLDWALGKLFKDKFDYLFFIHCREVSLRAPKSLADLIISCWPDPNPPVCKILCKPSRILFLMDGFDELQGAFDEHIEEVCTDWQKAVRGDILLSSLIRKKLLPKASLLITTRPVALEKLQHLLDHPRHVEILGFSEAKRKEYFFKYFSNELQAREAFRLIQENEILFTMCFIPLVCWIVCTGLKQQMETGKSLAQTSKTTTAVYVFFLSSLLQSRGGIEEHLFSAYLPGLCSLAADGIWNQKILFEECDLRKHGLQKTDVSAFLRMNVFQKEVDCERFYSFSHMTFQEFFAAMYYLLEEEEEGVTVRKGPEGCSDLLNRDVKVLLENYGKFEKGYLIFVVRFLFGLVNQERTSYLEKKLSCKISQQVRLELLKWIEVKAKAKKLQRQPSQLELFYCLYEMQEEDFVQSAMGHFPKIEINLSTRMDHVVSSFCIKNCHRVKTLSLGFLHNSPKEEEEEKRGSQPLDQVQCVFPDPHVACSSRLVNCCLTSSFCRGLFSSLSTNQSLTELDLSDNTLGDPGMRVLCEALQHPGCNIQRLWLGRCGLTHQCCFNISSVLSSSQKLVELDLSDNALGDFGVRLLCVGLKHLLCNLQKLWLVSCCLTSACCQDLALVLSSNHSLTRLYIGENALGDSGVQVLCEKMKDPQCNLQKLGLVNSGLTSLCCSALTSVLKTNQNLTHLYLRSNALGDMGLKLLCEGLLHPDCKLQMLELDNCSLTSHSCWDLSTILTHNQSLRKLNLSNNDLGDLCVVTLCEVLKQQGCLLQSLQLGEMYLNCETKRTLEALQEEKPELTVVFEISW

As for `Cc1cc(-c2ccc(C(F)(F)F)cc2O)nnc1NC[C@@H](C)O`, the IC50 in [1] is 160 nM.
Take `Cc1cc(-c2ccc(C(F)(F)F)cc2C(F)(F)F)nnc1NC[C@@H](C)O`: in series [1], the IC50 was determined as 90 nM.
Still for that read-out and setting: the figure for `C[C@@H](O)CNc1ccc(-c2ccc(C(F)(F)F)cc2C(F)(F)F)nn1` is 150 nM.
For the compound `CC(C)(O)c1coc(S(=O)(=O)NC(=O)Nc2c3c(cc4c2CCC4)CCC3)c1`, the concentration at 1 h is 2320 ng/mL in series [2] and 23.1 ng/g in [3]. Further, the Kp at 1 h in [4] was 0.01. For the same compound, the half-maximal inhibitory concentration (IC50) in series [5] is 7.5 nM. Moreover, in [6], the inhibition result was “inactive”.
For `Cc1cc(C(F)(F)F)ccc1-c1nnc(NCCCO)c2ccccc12`, the IC50 in [1] amounted to 490 nM.
The same measure, in the same setting: the figure for `OCCCNc1nnc(-c2cccc(C(F)(F)F)c2)c2ccccc12` is 17000 nM.
`OCCCNc1nnc(-c2ccc(C(F)(F)F)c(F)c2)c2ccccc12`: in [1], the IC50 was 980 nM.
As for `OCCCNc1nnc(-c2ccc(C(F)(F)F)cc2F)c2ccccc12`, the IC50 in series [1] is 510 nM.
On the same count and under the same terms, the figure for `CC(CO)CNc1nnc(-c2ccc(C(F)(F)F)cc2)c2ccccc12` (stereo not given) is 230 nM; for `Cc1c(NC[C@@H](C)O)nnc(-c2ccc(C(F)(F)F)cc2O)c1C` it is 14 nM.
`CC(CCO)Nc1nnc(-c2ccc(C(F)(F)F)cc2)c2ccccc12` (stereo not given): the IC50 in [1] was 3500 nM.
The same measure, in the same setting: as for `C[C@@H](O)CNc1nnc(-c2ccc(C(F)(F)F)cc2)c2ccccc12`, the figure is 140 nM.
Regarding `Cc1ccc(-c2nnc(NCCCO)c3ccccc23)cc1`, the IC50 in [1] is 2000 nM; in the series with THP-1, 3100 nM; in series [7], greater than 10000 nM. Besides, the concentration at 1 h in [8] was 360 ng/mL; in series [9], 117 ng/g. Also, the Kp at 1 h in [10] amounted to 0.33.
As for `Cc1c(NC[C@@H](C)O)nnc(-c2ccc(C(F)(F)F)cc2C(F)(F)F)c1C`, the IC50 in [1] worked out at 210 nM.
The same measure, in the same setting: as for `OCCCNc1nnc(-c2ccc(C(F)(F)F)cc2)c2ccccc12`, the figure is 370 nM; as for `OCCCNc1nnc(-c2ccccc2C(F)(F)F)c2ccccc12`, 5200 nM; as for `Cc1c(N[C@@H]2CCC[C@H]2O)nnc(-c2ccc(C(F)(F)F)cc2O)c1C`, 28 nM.
On the same count and under the same terms, the figure for `C[C@@H](O)CNc1nnc(-c2ccc(C(F)(F)F)cc2C(F)(F)F)c2ccccc12` is 57 nM; for `OCCCNc1nnc(-c2ccc(C(F)(F)F)cc2Cl)c2ccccc12` it is 350 nM.
With `CC(O)CCNc1nnc(-c2ccc(C(F)(F)F)cc2)c2ccccc12` (stereo not given), the half-inhibitory concentration (IC50) in series [1] amounted to 1200 nM.
The same measure, in the same setting: the figure for `C[C@H](O)CNc1nnc(-c2ccc(C(F)(F)F)cc2)c2ccccc12` is 230 nM; for `Cc1c(N[C@H]2CCC[C@H]2O)nnc(-c2ccc(C(F)(F)F)cc2O)c1C` it is 27 nM; for `OCCCNc1nnc(-c2ccc(C(F)(F)F)cc2C(F)(F)F)c2ccccc12` it is 110 nM.
On the same count and under the same terms, as for `OCCNc1nnc(-c2ccc(C(F)(F)F)cc2)c2ccccc12`, the figure is 610 nM; as for `Cc1cc(NC[C@@H](C)O)nnc1-c1ccc(C(F)(F)F)cc1O`, 17 nM; as for `CC(C)(CO)CNc1nnc(-c2ccc(C(F)(F)F)cc2)c2ccccc12`, 1000 nM.
Still for that read-out and setting: the figure for `COCCCNc1nnc(-c2ccc(C(F)(F)F)cc2)c2ccccc12` is 1700 nM; for `Cc1cc(NC[C@@H](C)O)nnc1-c1ccc(C(F)(F)F)cc1C(F)(F)F` it is 200 nM.
With `Cc1c(N[C@@H]2CCCC[C@H]2O)nnc(-c2ccc(C(F)(F)F)cc2O)c1C`, the figures for the IC50 (in the series with THP-1; in [7]; in series [17]) were 5.7 nM, greater than 10000 nM and 6.3 nM, respectively. The microsomal CLint at 0.2 µM in [11] and in series [12] was less than 20 µL/min/mg throughout. Besides, in series [13], the Kp at 1 h is 0.94. The inhibition entry in series [14], in series [15] and in series [16] was “Active” in each case. Moreover, the outcome with Mus musculus [18] and in the series on Mus musculus [19] was Active.
Regarding `Cc1c(NC[C@@H](C)O)nnc(-c2ccc(C(F)(F)F)cc2C(F)F)c1C`, the IC50 in series [1] was found to be 590 nM.
Take `Cc1c(N[C@H]2CCC[C@@H]2O)nnc(-c2ccc(C(F)(F)F)cc2O)c1C`: the IC50 in series [1] was 650 nM.
